Data published in patent publication US20230072683A1, “PYRIDO-PYRIMIDIN DERIVATIVES AND PHARMACEUTICAL COMPOSITION, FOR USE IN PREVENTING OR TREATING PI3 KINASE RELATED DISEASES, COMPRISING SAME AS ACTIVE INGREDIENT” (BORYUNG PHARMACEUTICAL CO., LTD, priority 2019, published 2023).
Like-named read-outs stand apart in the source and are kept apart here.

Experiments:
[1] = target: PI3K-δ (PI3K(p1108/p857) (h)) (Homo sapiens, UniProt O00329); experiment: Evaluation of inhibitory activity against PI3K-δ (HTRF kinase assay); format: biochemical; conditions: for inhibition at 0.01 µM: compound concentration 0.01 μM, read-out: EXP_VALUE(% Inhibition) PI3K-δ 0.01 μM; for inhibition at 0.1 µM: read-out: EXP_VALUE(% Inhibition) PI3K-δ 0.1 μM
Sequence of PI3K-δ (PI3K(p1108/p857) (h)) (O00329 whole entry, the tested form may be a part): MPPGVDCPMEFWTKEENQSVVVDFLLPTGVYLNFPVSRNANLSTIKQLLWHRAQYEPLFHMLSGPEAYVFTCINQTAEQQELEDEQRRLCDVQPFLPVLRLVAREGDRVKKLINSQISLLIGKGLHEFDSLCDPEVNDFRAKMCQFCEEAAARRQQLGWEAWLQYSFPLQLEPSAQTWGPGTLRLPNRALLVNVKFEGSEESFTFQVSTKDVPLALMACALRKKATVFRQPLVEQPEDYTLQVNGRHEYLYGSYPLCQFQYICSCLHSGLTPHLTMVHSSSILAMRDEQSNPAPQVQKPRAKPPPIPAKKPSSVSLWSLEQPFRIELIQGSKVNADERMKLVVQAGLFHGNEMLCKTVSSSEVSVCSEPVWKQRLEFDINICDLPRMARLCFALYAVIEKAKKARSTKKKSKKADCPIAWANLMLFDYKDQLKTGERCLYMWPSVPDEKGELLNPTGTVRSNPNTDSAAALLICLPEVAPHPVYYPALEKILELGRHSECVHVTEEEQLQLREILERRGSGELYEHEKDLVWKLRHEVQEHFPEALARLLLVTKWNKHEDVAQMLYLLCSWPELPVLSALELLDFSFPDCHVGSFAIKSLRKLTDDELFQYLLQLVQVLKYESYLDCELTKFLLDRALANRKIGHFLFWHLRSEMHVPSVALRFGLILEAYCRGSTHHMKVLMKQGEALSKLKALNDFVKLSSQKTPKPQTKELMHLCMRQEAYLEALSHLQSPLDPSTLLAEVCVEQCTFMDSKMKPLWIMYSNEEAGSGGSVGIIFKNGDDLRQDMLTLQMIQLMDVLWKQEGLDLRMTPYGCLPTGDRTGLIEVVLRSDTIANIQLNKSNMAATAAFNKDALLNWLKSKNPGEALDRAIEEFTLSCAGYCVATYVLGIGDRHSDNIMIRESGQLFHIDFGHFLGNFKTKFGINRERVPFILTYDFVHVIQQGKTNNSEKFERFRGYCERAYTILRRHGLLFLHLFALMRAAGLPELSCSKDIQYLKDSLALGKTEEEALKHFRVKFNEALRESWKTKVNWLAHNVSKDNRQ
Sequence of PI3K-δ (PI3K(p1108/p857) (h)) (P27986 whole entry partner, the tested form may be a part): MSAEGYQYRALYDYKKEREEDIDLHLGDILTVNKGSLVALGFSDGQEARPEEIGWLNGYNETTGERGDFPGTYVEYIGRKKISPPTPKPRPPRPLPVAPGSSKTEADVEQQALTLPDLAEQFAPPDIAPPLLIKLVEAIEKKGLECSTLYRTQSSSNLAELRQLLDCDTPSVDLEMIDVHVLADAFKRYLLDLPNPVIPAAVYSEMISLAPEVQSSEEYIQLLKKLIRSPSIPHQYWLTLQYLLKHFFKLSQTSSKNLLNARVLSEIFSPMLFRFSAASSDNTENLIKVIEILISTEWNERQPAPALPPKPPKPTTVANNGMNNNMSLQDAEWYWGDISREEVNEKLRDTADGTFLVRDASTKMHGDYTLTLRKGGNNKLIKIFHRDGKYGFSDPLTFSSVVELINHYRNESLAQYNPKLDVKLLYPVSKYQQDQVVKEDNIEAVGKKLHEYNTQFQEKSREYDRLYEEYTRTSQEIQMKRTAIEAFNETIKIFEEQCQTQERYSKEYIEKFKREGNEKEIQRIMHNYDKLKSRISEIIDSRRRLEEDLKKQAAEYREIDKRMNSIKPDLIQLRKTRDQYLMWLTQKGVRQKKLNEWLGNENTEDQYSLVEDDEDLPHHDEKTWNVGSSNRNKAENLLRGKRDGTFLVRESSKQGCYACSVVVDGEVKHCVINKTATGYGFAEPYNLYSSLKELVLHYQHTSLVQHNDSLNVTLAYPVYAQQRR
Summary of the method: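 HTRF read-out (665/620 nm ratio ×10000) used Eu-labelled anti-GST, GST-tagged GRP1 PH domain and streptavidin-allophycocyanin after EDTA/PIP3 stop.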

DNA-PK(h) = DNA-PK(h) (Homo sapiens, UniProt P78527); experiment: Evaluation of inhibitory activity against DNA-PK (HTRF kinase assay, GST-cMyc-p53 substrate); format: biochemical; conditions: for inhibition at 0.01 µM: compound concentration 0.01 μM, read-out: EXP_VALUE(% Inhibition) DNA-PK(h) 0.01 μM; for inhibition at 0.1 µM: read-out: EXP_VALUE(% Inhibition) DNA-PK(h) 0.1 μM
Summary of the method: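 p53 Ser15 phosphorylation by human DNA-PK was measured by time-resolved FRET ratio (665/620 nm ×10000) using Eu-labelled anti-phospho-Ser15 and d2 anti-GST antibodies. Substrate GST-cMyc-p53 at 50 μM; Mg/ATP-initiated, 30 min at room temperature, EDTA stop.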

inhibition at 0.01 µM [1] [%] | inhibition at 0.01 µM (DNA-PK(h)) [%] | inhibition at 0.1 µM ([1]; compound at 0.1 μM) [%] | inhibition at 0.1 µM (DNA-PK(h); compound at 0.1 μM) [%] | inhibition at 0.1 µM ([1]; compound concentration 0.1 μM) [%] | inhibition at 0.1 µM (DNA-PK(h); compound concentration 0.1 μM) [%] | SMILES
– | – | 16 | 30 | – | – | C[C@H](Nc1ncnc2[nH]ccc(=O)c12)c1c(Cl)c2cccc([S+]([O-])c3ccccn3)c2c(=O)n1-c1ccccc1 (stereo partly drawn) [Example 413, 4-(((1S)-1-(4-chloro-1-oxo-2-phenyl-8-(pyridin-2-ylsulfinyl)-1,2-dihydroisoquinolin-3-yl)ethyl)amino)pyrido[2,3-d]pyrimidin-5(8H)-one]
35.9 | 12.3 | – | – | 83.3 | 57.3 | C[C@H](Nc1ncnc2[nH]ccc(=O)c12)c1c(Cl)c2cccc(-n3cccn3)c2c(=O)n1-c1ccccc1 [Example 320, (S)-4-((1-(4-chloro-1-oxo-2-phenyl-8-(1H-pyrazol-1-yl)-1,2-dihydroisoquinolin-3-yl)ethyl)amino)pyrido[2,3-d]pyrimidin-5(8H)-one]
67 | 50 | – | – | 97 | 87 | C=Cc1cccc2c(Cl)c([C@H](C)Nc3ncnc4[nH]ccc(=O)c34)n(-c3ccccc3)c(=O)c12 [Example 142, (S)-4-((1-(4-chloro-1-oxo-2-phenyl-8-vinyl-1,2-dihydroisoquinolin-3-yl)ethyl)amino)pyrido[2,3-d]pyrimidin-5(8H)-one]
86 | 13 | – | – | 101 | 12 | C[C@H](Nc1ncnc2[nH]ccc(=O)c12)c1c(Cl)c2cccc(-c3ccc[nH]3)c2c(=O)n1-c1ccccc1 [Example 258, (S)-4-((1-(4-chloro-1-oxo-2-phenyl-8-(1H-pyrrol-2-yl)-1,2-dihydroisoquinolin-3-yl)ethyl)amino)pyrido[2,3-d]pyrimidin-5(8H)-one]
22 | 12 | – | – | 65 | 59 | CCNc1cccc2c(Cl)c([C@H](C)Nc3ncnc4[nH]ccc(=O)c34)n(-c3ccccc3)c(=O)c12 [Example 325, (S)-4-((1-(4-chloro-8-(ethylamino)-1-oxo-2-phenyl-1,2-dihydroisoquinolin-3-yl)ethyl)amino)pyrido[2,3-d]pyrimidin-5(8H)-one]
11 | 28 | – | – | – | – | C[C@H](Nc1ncnc2[nH]ccc(=O)c12)c1c(Cl)c2cccc(Nc3cccnc3)c2c(=O)n1-c1ccccc1 [Example 347, (S)-4-((1-(4-chloro-1-oxo-2-phenyl-8-(pyridin-3-ylamino)-1,2-dihydroisoquinolin-3-yl)ethyl)amino)pyrido[2,3-d]pyrimidin-5(8H)-one]
21 | 7 | – | – | – | – | C[C@H](Nc1ncnc2[nH]ccc(=O)c12)c1c(Cl)c2cccc(-c3ncccn3)c2c(=O)n1-c1ccccc1 [Example 35, (S)-4-((1-(4-chloro-1-oxo-2-phenyl-8-(pyrimidin-2-yl)-1,2-dihydroisoquinolin-3-yl)ethyl)amino)pyrido[2,3-d]pyrimidin-5(8H)-one]
– | – | 86 | 13 | – | – | C[C@H](Nc1ncnc2[nH]ccc(=O)c12)c1c(Cl)c2cccc(Oc3ccncc3)c2c(=O)n1-c1ccccc1 [Example 428, (S)-4-((1-(4-chloro-1-oxo-2-phenyl-8-(pyridin-4-yloxy)-1,2-dihydroisoquinolin-3-yl)ethyl)amino)pyrido[2,3-d]pyrimidin-5(8H)-one]
85 | 68 | – | – | – | – | CCOc1ccc(-c2cccc3c(Cl)c([C@H](C)Nc4ncnc5[nH]ccc(=O)c45)n(-c4ccccc4)c(=O)c23)cn1 [Example 183, (S)-4-((1-(4-chloro-8-(6-ethoxypyridin-3-yl)-1-oxo-2-phenyl-1,2-dihydroisoquinolin-3-yl)ethyl)amino)pyrido[2,3-d]pyrimidin-5(8H)-one]

The remaining lines, values behind:

SMILES | inhibition at 0.01 µM [1] [%] | inhibition at 0.01 µM (DNA-PK(h)) [%] | inhibition at 0.1 µM ([1]; compound at 0.1 μM) [%] | inhibition at 0.1 µM (DNA-PK(h); compound at 0.1 μM) [%] | inhibition at 0.1 µM ([1]; compound concentration 0.1 μM) [%] | inhibition at 0.1 µM (DNA-PK(h); compound concentration 0.1 μM) [%]
C[C@H](Nc1ncnc2[nH]ccc(=O)c12)c1c(Cl)c2cccc(C(=O)NCCN3CCOCC3)c2c(=O)n1-c1ccccc1 [Example 281, (S)-4-chloro-N-(2-morpholinoethyl)-1-oxo-3-(1-((5-oxo-5,8-dihydropyrido[2,3-d]pyrimidin-4-yl)amino)ethyl)-2-phenyl-1,2-dihydroisoquinoline-8-carboxamide] | 75 | 13 | – | – | – | –
C[C@H](Nc1ncnc2[nH]ccc(=O)c12)c1c(Cl)c2cccc(S(=O)(=O)C3COC3)c2c(=O)n1-c1ccccc1 [Example 432, (S)-4-((1-(4-chloro-8-(oxetan-3-ylsulfonyl)-1-oxo-2-phenyl-1,2-dihydroisoquinolin-3-yl)ethyl)amino)pyrido[2,3-d]pyrimidin-5(8H)-one] | – | – | 87 | 47 | – | –
CON=C(C)c1cccc2c(Cl)c([C@H](C)Nc3ncnc4[nH]ccc(=O)c34)n(-c3ccccc3)c(=O)c12 (stereo in doubt) [Example 270, (S,Z)-4-((1-(4-chloro-8-(1-(methoxyimino)ethyl)-1-oxo-2-phenyl-1,2-dihydroisoquinolin-3-yl)ethyl)amino)pyrido[2,3-d]pyrimidin-5(8H)-one] | 63 | 60 | – | – | – | –
C[C@H](Nc1ncnc2[nH]ccc(=O)c12)c1c(Cl)c2cccc(-c3ccc(S(C)(=O)=O)cc3)c2c(=O)n1-c1ccccc1 [Example 165, (S)-4-((1-(4-chloro-8-(4-(methylsulfonyl)phenyl)-1-oxo-2-phenyl-1,2-dihydroisoquinolin-3-yl)ethyl)amino)pyrido[2,3-d]pyrimidin-5(8H)-one] | 96 | 91 | – | – | – | –
C[C@H](Nc1ncnc2[nH]ccc(=O)c12)c1c(Cl)c2cccc([S@@](=N)(=O)c3ncccn3)c2c(=O)n1-c1ccccc1 [Example 422, 4-(((S)-1-(4-chloro-1-oxo-2-phenyl-8-((R)-pyrimidine-2-sulfonimidoyl)-1,2-dihydroisoquinolin-3-yl)ethyl)amino)pyrido[2,3-d]pyrimidin-5(8H)-one] | – | – | 9 | 18 | – | –
CC[S@@](=N)(=O)c1cccc2c(Cl)c([C@H](C)Nc3ncnc4[nH]ccc(=O)c34)n(-c3ccccc3)c(=O)c12 [Example 435, 4-(((S)-1-(4-chloro-8-((R)-ethylsulfonimidoyl)-1-oxo-2-phenyl-1,2-dihydroisoquinolin-3-yl)ethyl)amino)pyrido[2,3-d]pyrimidin-5(8H)-one] | – | – | 24 | 18 | – | –
C[C@H](Nc1ncnc2[nH]ccc(=O)c12)c1c(Cl)c2cccc(NS(=O)(=O)C3CC3)c2c(=O)n1-c1ccccc1 [Example 301, (S)—N-(4-chloro-1-oxo-3-(1-((5-oxo-5,8-dihydropyrido[2,3-d]pyrimidin-4-yl)amino)ethyl)-2-phenyl-1,2-dihydroisoquinolin-8-yl)cyclopropanesulfonamide] | 41 | 14 | – | – | – | –
C[C@H](Nc1ncnc2[nH]ccc(=O)c12)c1c(Cl)c2cccc(-c3cnc(OC(C)(C)C)nc3)c2c(=O)n1-c1ccccc1 [Example 424, (S)-4-((1-(8-(2-(tert-butoxy)pyrimidin-5-yl)-4-chloro-1-oxo-2-phenyl-1,2-dihydroisoquinolin-3-yl)ethyl)amino)pyrido[2,3-d]pyrimidin-5(8H)-one] | – | – | 38 | 56 | – | –
CC(C)[S@](=N)(=O)c1cccc2c(Cl)c([C@H](C)Nc3ncnc4[nH]ccc(=O)c34)n(-c3ccccc3)c(=O)c12 [Example 411, 4-(((S)-1-(4-chloro-1-oxo-2-phenyl-8-((S)-propan-2-ylsulfonimidoyl)-1,2-dihydroisoquinolin-3-yl)ethyl)amino)pyrido[2,3-d]pyrimidin-5(8H)-one] | – | – | 4 | 37 | – | –
COc1cc(OC(F)(F)F)cc(-c2cccc3c(Cl)c([C@H](C)Nc4ncnc5[nH]ccc(=O)c45)n(-c4ccccc4)c(=O)c23)c1 [Example 158, (S)-4-((1-(4-chloro-8-(3-methoxy-5-(trifluoromethoxy)phenyl)-1-oxo-2-phenyl-1,2-dihydroisoquinolin-3-yl)ethyl)amino)pyrido[2,3-d]pyrimidin-5(8H)-one] | 32 | 18 | – | – | – | –
C[C@H](Nc1ncnc2[nH]ccc(=O)c12)c1c(Br)c2cccc(-c3cnn(C)c3)c2c(=O)n1-c1ccccc1 [Example 19, (S)-4-((1-(4-bromo-8-(1-methyl-1H-pyrazol-4-yl)-1-oxo-2-phenyl-1,2-dihydroisoquinolin-3-yl)ethyl)amino)pyrido[2,3-d]pyrimidin-5(8H)-one] | 89 | 78 | – | – | 102 | 98
C[C@H](Nc1ncnc2[nH]ccc(=O)c12)c1c(Cl)c2cccc(-c3ccc4c(c3)OCCO4)c2c(=O)n1-c1ccccc1 [Example 253, (S)-4-((1-(4-chloro-8-(2,3-dihydrobenzo[b][1,4]dioxin-6-yl)-1-oxo-2-phenyl-1,2-dihydroisoquinolin-3-yl)ethyl)amino)pyrido[2,3-d]pyrimidin-5(8H)-one] | 105 | 78 | – | – | 102 | 97
C[C@H](Nc1ncnc2[nH]ccc(=O)c12)c1c(Cl)c2cccc(-c3ccc([Si](C)(C)C)cc3)c2c(=O)n1-c1ccccc1 [Example 178, (S)-4-((1-(4-chloro-1-oxo-2-phenyl-8-(4-(trimethylsilyl)phenyl)-1,2-dihydroisoquinolin-3-yl)ethyl)amino)pyrido[2,3-d]pyrimidin-5(8H)-one] | 9 | -4 | – | – | – | –
